# Results published in patent US20240369550A1, “MACROMOLECULAR STRUCTURES AND USES THEREOF” (The Regents of the University of Michigan, priority 2015, published 2024).
# Entries after “also recorded” stand apart in the source; their conditions may differ.
# System: DNase I
# Assay: DNase I-mediated degradation of DNA-histone structures (degradation modifier assay)
# Type: biochemical, bovine
# Details: LL-37 approx. 0.5, 5 or 50 μM; total Sytox Green fluorescence; relative to structures lacking LL-37 treated with DNase I
# Procedure: Time-lapse microscopy and microplate photometry were utilized to measure the overall rate of degradation, and DNA-histone structures were treated with multiple concentrations of DNase I to verify the dose-dependency of this rate (FIG. 3).
# 1 mg/ml DNase I (MW 31 kDa) was prepared in 10 mM Tris-HCl, 10 mM CaCl2, pH 7.5 (Tris buffer). Each well containing DNA-histone structures (as previously described) was washed 3 times with 150 μl of Tris buffer, and all solutions within each well were removed. 200 μL of the DNase I solution was then added to each well, and time-lapse fluorescent images of each well were acquired.
# 1 mg/ml LL-37 (MW 4.49 kDa) and 2 mg/ml histones (both in PBS) were added to a solution of 20% w/w PEG/PBS such that the final concentration of histones was approximately 1 mg/ml, and the final concentration of LL-37 in each solution was approximately 0.5 μM, 5 μM, or 50 μM. […]
# After complete removal of the solutions in each well, 150 μL of DNase I solution was added to each well. Time-lapse images or measurements of total fluorescence were acquired at a rate of one measurement per minute.
substance,measurement,value
LL-37,overall rate of DNase I-mediated degradation of DNA-histone structures,dose-dependent decrease in the overall rate of DNase I-mediated degradation; also recorded: inhibit the rate of DNase I mediated degradation
